ChEMBL document CHEMBL1145767, “Conformational restriction of methionyl tRNA synthetase inhibitors leading to analogues with potent inhibition and excellent gram-positive antibacterial activity” (Bioorg Med Chem Lett, 2003)
Converted amounts (≈) assume the structure as drawn.

Key:
Type in all cases: functional
Staphylococcus aureus [1] = assay: Inhibitory activity against Staphylococcus aureus MRS
Enterococcus faecalis [2] = assay: Antibacterial activity against Enterococcus faecalis 1
Staphylococcus aureus [3] = assay: Antibacterial activity against Staphylococcus aureus Oxford
Staphylococcus aureus [4] = assay: Antibacterial activity against Staphylococcus aureus
Enterococcus faecium = assay: Antibacterial activity against Enterococcus faecium
Enterococcus faecalis [5] = assay: Antibacterial activity against Enterococcus faecalis
[6] = tested on: Staphylococcus epidermidis; assay: Antibacterial activity against Staphylococcus epidermidis

SMILES	IC50 (Staphylococcus aureus [1])	MIC (Enterococcus faecalis [2])	MIC (Staphylococcus aureus [3])	MIC90 (Staphylococcus aureus [4])	MIC90 (Enterococcus faecium)	MIC90 (Enterococcus faecalis [5])	MIC90 [6]
Oc1cc(N[C@H]2CC[C@H](NCc3ccc(Cl)c(Cl)c3)CC2)nc2ccccc12	2300 nM	> 64 µg/mL	> 64 µg/mL				
Oc1cc(NC[C@H]2CCC[C@H]2NCc2ccc(Cl)c(Cl)c2)nc2ccccc12	18 nM	8 µg/mL (≈ 19.2 µM)	16 µg/mL (≈ 38.4 µM)				
Oc1cc(NC[C@H]2CCC[C@@H]2NCc2cc(Br)cc(Br)c2)nc2ccccc12	10 nM	< 0.06 µg/mL	< 0.06 µg/mL				
Oc1cc(N[C@H]2CCC[C@H](NCc3ccc(Cl)c(Cl)c3)C2)nc2ccccc12 (racemic)	43 nM	> 64 µg/mL	> 64 µg/mL				
Oc1cc(NCc2ccccc2NCc2ccc(Cl)c(Cl)c2)nc2ccccc12	56 nM	> 64 µg/mL	> 64 µg/mL				
CCOc1c(Br)cc(Br)cc1CN[C@H]1CCC[C@@H]1CNc1cc(O)c2ccccc2n1	7.6 nM	< 0.06 µg/mL	< 0.06 µg/mL	0.06 µg/mL (≈ 0.109 µM)	< 0.016 µg/mL	0.03 µg/mL (≈ 0.0546 µM)	0.125 µg/mL (≈ 0.228 µM)
Oc1cc(NC[C@H]2CCC[C@@H]2NCc2ccc(Cl)c(Cl)c2)nc2ccccc12	9 nM	0.125 µg/mL (≈ 0.3 µM)	1 µg/mL (≈ 2.4 µM)				
Oc1cc(N[C@@H]2CCC[C@H](NCc3ccc(Cl)c(Cl)c3)C2)nc2ccccc12 (racemic)	150 nM	32 µg/mL (≈ 76.9 µM)	64 µg/mL (≈ 154 µM)				
Oc1cc(NC[C@@H]2CCC[C@H]2NCc2ccc(Cl)c(Cl)c2)nc2ccccc12	700 nM	32 µg/mL (≈ 76.9 µM)	> 64 µg/mL				

Results, then the compound that gave them:

IC50 (Staphylococcus aureus [1])	MIC (Enterococcus faecalis [2])	MIC (Staphylococcus aureus [3])	MIC90 (Staphylococcus aureus [4])	MIC90 (Enterococcus faecium)	MIC90 (Enterococcus faecalis [5])	MIC90 [6]	SMILES
10 nM	> 64 µg/mL	> 64 µg/mL					Oc1cc(NCC2=CCCC2NCc2ccc(Cl)c(Cl)c2)nc2ccccc12 (racemic)
12 nM	0.25 µg/mL (≈ 0.621 µM)	2 µg/mL (≈ 4.97 µM)					Oc1cc(NC[C@H]2CC[C@@H]2NCc2ccc(Cl)c(Cl)c2)nc2ccccc12 (racemic)
110 nM	16 µg/mL (≈ 39.8 µM)	> 64 µg/mL					Oc1cc(NC[C@H]2CC[C@H]2NCc2ccc(Cl)c(Cl)c2)nc2ccccc12 (racemic)
78 nM	4 µg/mL (≈ 9.56 µM)	64 µg/mL (≈ 153 µM)					Oc1cc(NC[C@H]2OCC[C@@H]2NCc2ccc(Cl)c(Cl)c2)nc2ccccc12
100 nM	1 µg/mL (≈ 2.4 µM)	8 µg/mL (≈ 19.2 µM)					Oc1cc(NC[C@@H]2CCC[C@@H]2NCc2ccc(Cl)c(Cl)c2)nc2ccccc12
